Results: ChEMBL document CHEMBL3351494, “Selenium analogues of raloxifene as promising antiproliferative agents in treatment of breast cancer” (Eur J Med Chem, 2014)
The source made the active and inactive calls. The calls are words filed in the database; no cut-off is given here.

Tests used:
[1] = Acute toxicity in po dosed rat; assay type: organism-based; details: in vivo
[2] = tested on: 4T1; test: Antitumor activity against mouse 4T1 cells allografted in BALB/c mouse assessed as tumor growth inhibition at 15 mg/kg, ip administered 24 hrs post tumor implantation on even days of total 9 doses for 18 days measured after 18 days relative to control; assay type: functional
[3] = Cytotoxicity against human MES-SA cells after 72 hrs by MTT assay; assay type: functional, cell-based
[4] = tested on: MG-22A; test: Cytotoxicity against mouse MG-22A cells after 72 hrs by MTT assay; assay type: functional, cell-based
[5] = tested on: CCRF S-180; test: Antitumor activity against mouse S180 cells allografted in ICR mouse assessed as tumor growth inhibition at 15 mg/kg, ip qd administered 24 hrs post tumor implantation for 9 days measured after 9 days relative to control; assay type: functional, organism-based; set-up: dose 15 mg/kg
[6] = tested on: 4T1; test: Antitumor activity against mouse 4T1 cells allografted in BALB/c mouse assessed as tumor growth inhibition at 1.8 mg/kg, ip administered 24 hrs post tumor implantation on even days of total 9 doses for 18 days relative to control; assay type: functional; details: 4T1, ip, route intraperitoneal, read-out: TGI
[7] = tested on: MCF7; test: Cytotoxicity against human MCF7 cells after 72 hrs by MTT assay; assay type: functional, cell-based; details: MCF7, 72 h
[8] = Cytotoxicity against mouse CCL8 cells after 72 hrs by MTT assay; assay type: functional, cell-based; details: CCL8, 72 h
[9] = Cytotoxicity against human MDA-MB-435S cells after 72 hrs by MTT assay; assay type: functional, cell-based
[10] = Cytotoxicity against human HT1080 cells after 72 hrs by MTT assay; assay type: functional, cell-based; details: HT-1080, 72 h
[11] = Cytotoxicity against mouse NIH/3T3 cells after 72 hrs by MTT assay; assay type: cell-based; details: NIH3T3, 72 h
[12] = tested on: Mus musculus; test: Toxicity in mouse 4T1 cells allografted BALB/c mouse assessed as body weight loss at 15 mg/kg, ip administered 24 hrs post tumor implantation on even days of total 9 doses for 18 days measured after 18 days relative to control; assay type: organism-based; set-up: dose 15 mg/kg, route intraperitoneal; details: in vivo, 432 h

| Compound | LD50 [1] [mg/kg] | TGI [2] | IC50 [3] [µM] | IC50 [4] [µM] | TGI [5] | inhibition in vivo at 1.8 mg/kg [6] [%] | IC50 [7] [µM] | IC50 [8] [µM] | IC50 [9] [µM] | IC50 [10] [µM] | IC50 [11] [µM] | inhibition in vivo at 15 mg/kg ([2]; 4T1, ip, route intraperitoneal, read-out: TGI) [%] | Activity [12] |
| --- | --- | --- | --- | --- | --- | --- | --- | --- | --- | --- | --- | --- | --- |
| O=C(c1ccc(OCCN2CCCCC2)cc1)c1c(-c2ccc(O)cc2)sc2cc(O)ccc12 [RALOXIFENE] | 255 | inactive | 37 | 6.8 | inactive | 70 | 50 | 27 | 26 | 34 | 7.8 |  |  |
| Cl.O=C(c1ccc(OCCN2CCCC2)cc1)c1c(-c2ccc(O)cc2)[se]c2cc(O)ccc12 | 543 |  | 32 | 21 |  |  | 33 | 34 | 43 | 36 | 42 |  |  |
| C[N+](C)(C)CCOc1ccc(C(=O)c2c(-c3ccc(O)cc3)[se]c3cc(O)ccc23)cc1.[Cl-] | 1540 |  |  | 124 |  |  |  |  |  | 131 | 452 |  |  |
| CN(C)CCOc1ccc(C(=O)c2c(-c3ccc(F)cc3)[se]c3cc(F)ccc23)cc1.Cl | 313 |  | 3.8 | 3.8 |  |  | 6.7 | 3.8 | 3.5 | 4.8 | 11 |  |  |
| CN(C)CCOc1ccc(C(=O)c2c(-c3ccc(O)cc3)[se]c3cc(O)ccc23)cc1.Cl | 413 |  | 51 | 9 |  |  | 22 | 28 | 26 | 48 | 20 |  |  |
| Cl.O=C(c1ccc(OCCN2CCCCC2)cc1)c1c(-c2ccc(F)cc2)[se]c2cc(F)ccc12 | 280 |  | 4.5 | 4.5 |  |  | 11.6 | 3.6 | 3.6 | 4.5 | 9 |  |  |
| Cl.O=C(c1ccc(OCCN2CCCCC2)cc1)c1c(-c2ccc(O)cc2)[se]c2cc(O)ccc12 | 446 |  | 56 | 5.4 | inactive | 4 | 35 | 5.4 | 3.6 | 12 | 22 | 30 | Non-toxic |
| Cl.O=C(c1ccc(OCCN2CCCCCC2)cc1)c1c(-c2ccc(O)cc2)[se]c2cc(O)ccc12 | 400 |  | 39 | 5.2 |  |  | 40 | 36 | 14 | 27 | 14 |  |  |
| Cl.O=C(c1ccc(OCCN2CCOCC2)cc1)c1[se]c2cc(O)ccc2c1-c1ccc(O)cc1 | 465 |  | 6.9 | 5.2 |  |  | 31 | 3.4 | 15.5 | 8.6 | 16 |  |  |
| CNCCOc1ccc(C(=O)c2c(-c3ccc(O)cc3)[se]c3cc(O)ccc23)cc1.Cl | 452 |  | 42 | 6 |  |  | 12 | 46 | 17 | 6 | 32 |  |  |
| CCCCCCCCN(C)CCOc1ccc(C(=O)c2c(-c3ccc(O)cc3)[se]c3cc(O)ccc23)cc1.Cl | 308 |  | 4 | 3.2 |  |  | 4.7 | 4.7 | 4 | 4.7 | 8 |  |  |
| Cl.O=C(c1ccc(OCCN2CCCCC2)cc1)c1[se]c2cc(O)ccc2c1-c1ccc(O)cc1 | 615 |  | 14.3 | 3.6 |  |  | 25 | 3.6 | 32 | 30 | 28 |  |  |
| CN(C)CCOc1ccc(C(=O)c2[se]c3cc(O)ccc3c2-c2ccc(O)cc2)cc1.Cl | 674 |  | 5.8 | 3.9 |  |  | 17.3 | 3.8 | 3.8 | 5.8 | 31 |  |  |
| Cl.O=C(c1ccc(OCCN2CCOCC2)cc1)c1c(-c2ccc(O)cc2)[se]c2cc(O)ccc12 | 553 |  | 61 | 8 |  |  | 38 | 9.8 | 32 | 46 | 36 |  |  |
| O=[Se]([O-])[O-].[Na+].[Na+] [SODIUM SELENITE] | 105 |  | 29 | 64 |  |  | 17 | 8 | 12 | 1.7 | 23 |  |  |
| Cl.O=C(c1ccc(OCCN2CCOCC2)cc1)c1c(-c2ccc(F)cc2)[se]c2cc(F)ccc12 | 1410 |  | 53 | 21 |  |  | 121 | 25 | 168 | 27 | 363 |  |  |
